≈ marks a conversion by molar mass, not a printed value.
How the values were obtained:
[1] = system: Staphylococcus aureus MRSA 252; experiment: MIC, Staphylococcus panel (9.2); type: cell-based; settings: 18 h
Method: (§1) The microdilution method recommended by the Clinical and Laboratory Standard Institute [M07-A9, Vol. 32, N° 2] was used. The activity of bis-indolic compounds 3f and 4 was tested against 35 Staphylococcus bacterial strains corresponding to 12 different species,
(§2) Bacterial inocula were prepared in Mueller Hinton broth (MH2, BioMérieux, Marcy L'Etoile, France). They were dispensed in 96 well microtiter plates (5×10^5 CFU/ml of final inoculum, 192 μL per well). Indolic compounds diluted in pure DMSO (8 μL per well, concentrated 25 times) were added to the wells as to obtain two-fold serial concentrations (0.5-32 mg/L of final concentrations). The final concentration of DMSO was 4% in each well.
(§3) To avoid cross-contaminations in microtiter plates, one row was left blank between each strain tested. Microplates were incubated for 18 h at 37° C. in ambient air. Then MICs were read visually and, in case of visual reading difficulties, confirmed using a spectrophotometer at a wavelength of 630 nm (BioTek® EL808 Absorbance Microplate Reader). MICs corresponded to the minimum bis-indolic compound concentration that allowed complete visual growth inhibition of bacteria. Drug-free cultures served as growth controls.
(§4) Four Staphylococcus aureus strains were used. Two reference strains were provided by the French reference center for Staphylococcus spp. (Lyon, France), including one methicillin-susceptible (MSSA 476) and one methicillin-resistant (MRSA 252) S. aureus strains. The two remaining S. aureus strains were purchased from the CRBIP (Centre de Ressources Biologiques de l'Institut Pasteur): a vancomycin-intermediate strain (ATCC 106414) and a S. aureus strain (SA-1199B) resistant to fluoroquinolones due to overexpression of the NorA multidrug efflux pump.

[2] = system: Staphylococcus aureus MSSA 476; experiment: MIC, Staphylococcus panel (9.2); type: cell-based; settings: S. aureus MSSA 476, 4% DMSO, 18 h
Method: as §1, §2, §3, §4

[3] = system: Staphylococcus aureus SA-1199B (NorA); experiment: MIC, Staphylococcus panel (9.2); type: cell-based; settings: 18 h
Method: as §1, §2, §3, §4

[4] = system: Staphylococcus auricularis (CHUG-Saur1); experiment: MIC, Staphylococcus panel (9.2); type: cell-based; settings: S. auricularis CHUG-Saur1, 4% DMSO, 18 h
Method: as §1, §2, §3
(§5) Coagulase-negative Staphylococcus strains included three reference strains purchased from CRBIP: a methicillin-susceptible S. epidermidis strain (ATCC 12228), a methicillin-resistant S. epidermidis strain (ATCC 49461), and a methicillin-susceptible S. sciuri strain (ATCC 29061). We also used clinical strains belonging to the following coagulase-negative Staphylococcus species: S. auricularis (two strains), S. warneri (five strains), S. capitis (five strains), S. haemolyticus (four strains), S. hominis (seven strains), S. cohnii (two strains), and S. saprophyticus, S. caprae and S. simulans (one strain each). Identification of the clinical strains was obtained using VITEK® 2 System (Biomérieux). The specified strain numbers correspond to an internal number of the bacterial strain collection of our laboratory.

[5] = system: Staphylococcus capitis (CHUG-Scap1); experiment: MIC, Staphylococcus panel (9.2); type: cell-based; settings: S. capitis CHUG-Scap1, 4% DMSO, 18 h
Method: as §1, §2, §3, §5

[6] = system: Staphylococcus epidermidis ATCC 12228; experiment: MIC, Staphylococcus panel (9.2); type: cell-based; settings: ATCC12228, S. epidermidis ATCC 12228, 4% DMSO, 18 h
Method: as §1, §2, §3, §5

[7] = system: Staphylococcus epidermidis ATCC 49461; experiment: MIC, Staphylococcus panel (9.2); type: cell-based; settings: ATCC49461, S. epidermidis ATCC 49461, 4% DMSO, 18 h
Method: as §1, §2, §3, §5

[8] = system: Staphylococcus haemolyticus (CHUG-Shae1); experiment: MIC, Staphylococcus panel (9.2); type: cell-based; settings: S. haemolyticus CHUG-Shae1, 4% DMSO, 18 h
Method: as §1, §2, §3, §5

[9] = system: Staphylococcus hominis (CHUG-Shom1); experiment: MIC, Staphylococcus panel (9.2); type: cell-based; settings: S. hominis CHUG-Shom1, 4% DMSO, 18 h
Method: as §1, §2, §3, §5

[10] = system: Staphylococcus sciuri ATCC 29061; experiment: MIC, Staphylococcus panel (9.2); type: cell-based; settings: Mammaliicoccus sciuri, ATCC29061; S. sciuri ATCC 29061; 4% DMSO, 18 h
Method: as §1, §2, §3, §5

[11] = system: Staphylococcus warneri (CHUG-Swar1); experiment: MIC, Staphylococcus panel (9.2); type: cell-based; settings: S. warneri CHUG-Swar1, 4% DMSO, 18 h
Method: as §1, §2, §3, §5

[12] = system: Staphylococcus auricularis (CHUG-Saur3); experiment: MIC, Staphylococcus panel (9.2); type: cell-based; settings: S. auricularis CHUG-Saur3, 4% DMSO, 18 h
Method: as §1, §2, §3, §5

[13] = system: Staphylococcus haemolyticus (CHUG-Shae4); experiment: MIC, Staphylococcus panel (9.2); type: cell-based; settings: S. haemolyticus CHUG-Shae4, 4% DMSO, 18 h
Method: as §1, §2, §3, §5

[14] = system: Staphylococcus warneri (CHUG-Swar7); experiment: MIC, Staphylococcus panel (9.2); type: cell-based; settings: S. warneri CHUG-Swar7, 4% DMSO, 18 h
Method: as §1, §2, §3, §5

[15] = system: Staphylococcus aureus K2378 (overexpresses the efflux pump NorA from a multicopy plasmid); experiment: Efflux pump inhibition assay with sub-inhibitory ciprofloxacin; type: cell-based; settings: S. aureus K2378; in the presence of ciprofloxacin 0.5 mg/L
Method: The efflux pump inhibition potential of the bis-indolic derivatives was tested using two steps.
The following experimental protocol was used: indolic derivatives (initially solubilised in DMSO at 10 mg/mL) were dispensed in a 96-wells microplate by two fold serial dilutions in Muller-Hinton medium (MH, Bio Rad) using a Biomek 2000 (Beckman) handling robot. 100 μL of the bacterial inoculum (an overnight culture at 37° C. in 5 mL MH diluted 100-fold) was then added in each well. The total volume was 200 μL in each well and the final bacteria concentration 10^6 CFU/mL (CFU: colony forming unit). The highest final indolic derivative concentration was 128 mg/L. Growth was assayed with a microplate reader by monitoring absorption at 620 nm after 1, 2, 5, 7 and 24 h incubation at 37° C. In addition, the plates were read visually after 24 hours incubation. Cultures containing 5 μL DMSO were used as growth controls. In addition, two controls containing a sub-inhibitory or a inhibitory antibiotic concentration for the tested strain were performed. The antibiotics used were ampicillin (0.5 and 32 μg/mL) for E. coli, kanamycin (0.5 and 16 μg/mL) for S. aureus ATCC 25923, ciprofloxacin (4 and 64 mg/L) for S. aureus 1199B, ciprofloxacin (0.5 and 2 mg/L) for S. aureus K2378. All experiments were performed in duplicate.
Efflux pump inhibition assays were then performed against resistant Staphylococcus aureus strains SA 1199B and SA K2378 for bis-indolic derivatives. […] The minimal inhibitory concentration (MIC) of the bis-indolic compound allowing a complete inhibition of the bacterial growth in the presence of ciprofloxacin was determined.

SMILES	MIC [1]	MIC [2]	MIC [3]	MIC [4]	MIC [5]	MIC [6]	MIC [7]	MIC [8]	MIC [9]	MIC [10]	MIC [11]	melting point	MIC [12]	MIC [13]	MIC [14]	MIC, mg/L (Ciprofloxacin concentration, mg/L) [15]
CC(NC(=O)c1c[nH]c2ccc(Br)cc12)c1c[nH]c2ccc(Br)cc12 (stereo not drawn) [Compound 4, 5-Bromo-N-(1-(5-bromo-1H-indol-3-yl)ethyl)-1H-indole-3-carboxamide]	2 µg/mL (≈ 4.34 µM)	1 µg/mL (≈ 2.17 µM)	2 µg/mL (≈ 4.34 µM)	1 µg/mL (≈ 2.17 µM)	2 µg/mL (≈ 4.34 µM)	1 µg/mL (≈ 2.17 µM)	1 µg/mL (≈ 2.17 µM)	2 µg/mL (≈ 4.34 µM)	1 µg/mL (≈ 2.17 µM)	2 µg/mL (≈ 4.34 µM)	1 µg/mL (≈ 2.17 µM)	144 °C	–	–	–	–
CC(C)(C)OC(=O)NCC(NC(=O)c1c[nH]c2ccc(Br)cc12)c1c[nH]c2ccc(Br)cc12 (stereo not drawn) [Compound 3f, tert-Butyl(2-(5-bromo-1H-indol-3-yl)-2-(5-bromo-1H-indolyl-3-carboxamido)ethyl)carbamate]	2 µg/mL (≈ 3.47 µM)	2 µg/mL (≈ 3.47 µM)	2 µg/mL (≈ 3.47 µM)	2 µg/mL (≈ 3.47 µM)	4 µg/mL (≈ 6.94 µM)	2 µg/mL (≈ 3.47 µM)	2 µg/mL (≈ 3.47 µM)	4 µg/mL (≈ 6.94 µM)	4 µg/mL (≈ 6.94 µM)	4 µg/mL (≈ 6.94 µM)	2 µg/mL (≈ 3.47 µM)	–	8 µg/mL (≈ 13.9 µM)	16 µg/mL (≈ 27.8 µM)	8 µg/mL (≈ 13.9 µM)	–
Cn1cc(C(=O)NC(CNC(=O)OC(C)(C)C)c2c[nH]c3ccc(Br)cc23)c2cc(Br)ccc21 (stereo not drawn) [Compound 7, tert-Butyl (2-(5-bromo-1-methyl-1H-indole-3-carboxamido)-2-(5-bromo-1H-indol-3-yl)ethyl) carbamate]	–	–	–	–	–	–	–	–	–	–	–	–	–	–	–	0.125 (0.5) mg/L

— patent publication US9676715B2, “Bis-indolic derivatives, a process for preparing the same and their uses as a drug” (UNIVERSITE JOSEPH FOURIER, priority 2011, dated 2017)
